Reference: ChEMBL document CHEMBL1777783, “The synthesis and biological evaluation of 2-amino-4,5,6,7,8,9-hexahydrocycloocta[b]thiophenes as allosteric modulators of the A1 adenosine receptor” (Bioorg Med Chem Lett, 2011)
Calls of active or inactive are those of the source. The calls are words filed in the database; no cut-off is given here.

Experiments:
[1] = biological target: T1, Adenosine receptor A1 (Homo sapiens) (UniProt P30542); experiment: Allosteric modulation at human adenosine A1 receptor expressed in CHO FlpIn cells assessed as increase in EC50 concentration of N(6)-(R-phenylisopropyl)adenosine receptor agonist-induced ERK1/2 phosphorylation at 3 uM relative to control; format: functional, cell-based
T1 sequence (whole entry): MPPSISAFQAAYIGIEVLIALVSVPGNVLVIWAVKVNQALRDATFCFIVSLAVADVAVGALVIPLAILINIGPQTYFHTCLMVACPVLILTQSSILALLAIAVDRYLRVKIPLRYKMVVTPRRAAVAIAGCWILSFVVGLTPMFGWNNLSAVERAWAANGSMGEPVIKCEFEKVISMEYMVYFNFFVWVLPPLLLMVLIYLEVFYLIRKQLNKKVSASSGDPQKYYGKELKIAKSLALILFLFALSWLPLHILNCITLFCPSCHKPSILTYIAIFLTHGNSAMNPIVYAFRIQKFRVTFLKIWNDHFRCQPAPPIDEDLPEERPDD

[2] = biological target: T1, Adenosine receptor A1 (Homo sapiens); experiment: Allosteric modulation at human adenosine A1 receptor expressed in CHO FlpIn cells assessed as increase in EC50 concentration of N(6)-(R-phenylisopropyl)adenosine receptor agonist-induced ERK1/2 phosphorylation at 10 uM relative to control; format: functional, cell-based
[3] = biological target: T1, Adenosine receptor A1 (Homo sapiens); experiment: Allosteric modulation at human adenosine A1 receptor expressed in CHO FlpIn cells assessed as increase in ERK1/2 phosphorylation at 3 to 10 uM relative to control; format: cell-based
[4] = biological target: T1, Adenosine receptor A1 (Homo sapiens); experiment: Allosteric modulation at human adenosine A1 receptor expressed in CHO FlpIn cells assessed as increase in leftward shift of N(6)-(R-phenylisopropyl)adenosine-mediated ERK1/2 phosphorylation curve at 0.1 to 10 uM; format: cell-based
[5] = biological target: T1, Adenosine receptor A1 (Homo sapiens); experiment: Binding affinity to human adenosine A1 receptor allosteric site expressed in CHO FlpIn cells; format: cell-based

Row | Activity [1] | Activity [2] | Activity [3] | Activity [4] | pKb [5] | SMILES
1 | 55% | 68% | inactive |  |  | Cc1ccc(C(=O)c2c(N)sc3c2CCCCC3)cc1
2 | 56% | 63% | Active |  |  | Nc1sc2c(c1C(=O)c1ccc(Cl)cc1)CCCCCC2
3 | 56% | 75% | inactive |  |  | Cc1ccc(C(=O)c2c(N)sc3c2CCCCCC3)cc1
4 | 70% | 91% | Active | Active | 5.1 | Cc1ccc(C(=O)c2c(N)sc3c2CCCC3)cc1
5 | 50% | 56% | inactive |  |  | Cc1ccc(C(=O)c2c(N)sc3c2CCC3)cc1

The remaining lines, values behind:

Row | SMILES | Activity [1] | Activity [2] | Activity [3] | Activity [4] | pKb [5]
6 | NNC(=O)c1c(N)sc2c1CCCCC2 | 52% | 51% | inactive |  | 
7 | NC(=O)c1c(N)sc2c1CCCCC2 | 47% | 50% | inactive |  | 
8 | NC(=O)c1c(N)sc2c1CCCCCC2 | 48% | 48% | inactive |  | 
9 | Nc1sc2c(c1C(=O)c1cccc(C(F)(F)F)c1)CCCCC2 | 53% | 74% | inactive |  | 
10 | Nc1sc2c(c1C(=O)c1cccc(C(F)(F)F)c1)CCCCCC2 | 57% | 65% | inactive | Active | 5.07
11 | NNC(=O)c1c(N)sc2c1CCCCCC2 | 48% | 48% | inactive |  | 
12 | Nc1sc2c(c1C(=O)NNc1ccccc1)CCCCC2 | 44% | 42% | inactive |  | 
13 | Nc1sc2c(c1C(=O)NCc1ccccc1)CCCCCC2 | 48% | 50% | inactive |  | 
14 | Nc1sc2c(c1C(=O)NCc1cccc(Cl)c1)CCCCCC2 | 49% | 47% | inactive |  | 
15 | Nc1sc2c(c1C(=O)c1cccc(C(F)(F)F)c1)CCC2 | 75% | 98% | Active |  | 
16 | Nc1sc2c(c1C(=O)c1cccc(C(F)(F)F)c1)CCCC2 | 73% | 88% | Active |  | 
17 | Nc1sc2c(c1C(=O)c1ccccc1)CCCCCC2 | 49% | 36% | inactive |  | 
18 | Nc1sc2c(c1C(=O)NNc1ccccc1)CCCCCC2 | 47% | 43% | inactive |  | 
